ChEMBL document CHEMBL1955803, “Preclinical in vivo evaluation of efficacy, pharmacokinetics, and pharmacodynamics of a novel MEK1/2 kinase inhibitor RO5068760 in multiple tumor models” (Mol Cancer Ther, 2010)
The source made the active and inactive calls. The calls are words filed in the database; no cut-off is given here.

Legend:
[1] = molecular target: Dual specificity mitogen-activated protein kinase kinase 1 (Homo sapiens, UniProt Q02750); test: Inhibition of MEK1 in human H460 cells assessed as inhibition of ERK phosphorylation by Western blot analysis; assay type: cell-based
[2] = Drug level in human LOX cells expressing B-Raf V600E mutant xenografted nude mouse tumor at 100 mg/kg, po after 4 hrs; assay type: ADME, organism-based, Neoplasm; set-up: dose 100 mg/kg, route oral; conditions: read-out: Drug uptake
[3] = Drug level in human LOX cells expressing B-Raf V600E mutant xenografted nude mouse tumor at 100 mg/kg, po after 2 hrs; assay type: ADME, organism-based, Neoplasm; set-up: dose 100 mg/kg, route oral; conditions: read-out: Drug uptake
[4] = molecular target: T1, Dual specificity mitogen-activated protein kinase kinase; MEK1/2 (Homo sapiens) (UniProt P36507+Q02750); conditions: HT-29, 2 to 10 uM
Description: Inhibition of MEK1/2 in human HT-29 cells assessed as inhibition of ERK1/2 phosphorylation at 2 to 10 uM by Western blot analysis

[5] = molecular target: T1, Dual specificity mitogen-activated protein kinase kinase; MEK1/2 (Homo sapiens); conditions: HT-29, 2 to 10 uM; remark: listed apart in the source
Description: Inhibition of MEK1/2 in human HT-29 cells assessed as upregulation of p27 expression at 2 to 10 uM by Western blot analysis

[6] = AUC (0 to 12 hrs) in human LOX cells expressing B-Raf V600E mutant xenografted nude mouse at 25 mg/kg, po bid; assay type: ADME, organism-based; set-up: time < 12 hr, dose 25 mg/kg, route oral; conditions: in vivo
[7] = Antitumor activity against human LOX cells expressing B-Raf V600E mutant xenografted in nude mouse assessed as tumor growth inhibition at 6.25 mg/kg, po bid; assay type: functional; conditions: read-out: GI
Mus musculus [8] = test: Inhibition of MEK-mediated ERK phosphorylation in tumor of human HT-29 cells expressing B-Raf V600E mutant xenografted nude mouse at 50 mg/kg, po after 8 hrs by Western blot analysis relative to control; assay type: functional; conditions: HT-29, 8 h
[9] = Plasma concentration in human LOX cells expressing B-Raf V600E mutant xenografted nude mouse at 100 mg/kg, po after 4 hrs; assay type: ADME, organism-based; set-up: dose 100 mg/kg, route oral
HT-29 = test: Induction of apoptosis in human HT-29 cells; assay type: functional, cell-based
Mus musculus [10] = test: Inhibition of MEK-mediated ERK phosphorylation in tumor of human LOX cells expressing B-Raf V600E mutant xenografted nude mouse at 100 mg/kg, po after 8 hrs by Western blot analysis relative to control; assay type: functional
[11] = Cmax in human LOX cells expressing B-Raf V600E mutant xenografted nude mouse at 6.25 mg/kg, po bid; assay type: ADME, organism-based; set-up: dose 6.25 mg/kg, route oral; conditions: in vivo
[12] = Cmax in human H460 cells expressing K-Ras Q61H mutant xenografted nude mouse at 100 mg/kg, po bid; assay type: ADME, organism-based; set-up: dose 100 mg/kg, route oral; conditions: in vivo
[13] = Cmax in human H460 cells expressing K-Ras Q61H mutant xenografted nude mouse at 200 mg/kg, po qd; assay type: ADME, organism-based; set-up: dose 200 mg/kg, route oral; conditions: in vivo
[14] = AUC (0 to 24 hrs) in human MIAPaCa2 cells expressing K-Ras G12C mutant xenografted nude mouse at 200 mg/kg, po qd; assay type: ADME, organism-based, MIA PaCa-2; set-up: time < 24 hr, dose 200 mg/kg, route oral; conditions: in vivo
NCI-H460 = test: Antitumor activity against human H460 cells expressing K-Ras Q61H mutant xenografted in nude mouse assessed as tumor growth inhibition at 50 mg/kg, po bid; assay type: functional; conditions: read-out: GI
[15] = Drug level in human LOX cells expressing B-Raf V600E mutant xenografted nude mouse tumor at 100 mg/kg, po after 8 hrs; assay type: ADME, organism-based, Neoplasm; set-up: dose 100 mg/kg, route oral; conditions: read-out: Drug uptake

T1 sequence (P36507 whole entry, looked up): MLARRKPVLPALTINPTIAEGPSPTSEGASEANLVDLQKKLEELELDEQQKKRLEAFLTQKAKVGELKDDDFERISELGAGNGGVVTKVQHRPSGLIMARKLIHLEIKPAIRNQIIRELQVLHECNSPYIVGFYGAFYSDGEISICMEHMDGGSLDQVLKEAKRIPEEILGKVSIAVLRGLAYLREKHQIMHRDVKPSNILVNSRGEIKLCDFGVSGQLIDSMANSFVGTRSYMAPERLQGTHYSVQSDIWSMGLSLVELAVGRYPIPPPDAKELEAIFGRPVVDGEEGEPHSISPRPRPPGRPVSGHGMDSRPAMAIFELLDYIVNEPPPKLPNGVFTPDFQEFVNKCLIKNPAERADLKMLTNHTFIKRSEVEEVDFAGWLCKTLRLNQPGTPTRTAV
T1 sequence (Q02750 whole entry, looked up): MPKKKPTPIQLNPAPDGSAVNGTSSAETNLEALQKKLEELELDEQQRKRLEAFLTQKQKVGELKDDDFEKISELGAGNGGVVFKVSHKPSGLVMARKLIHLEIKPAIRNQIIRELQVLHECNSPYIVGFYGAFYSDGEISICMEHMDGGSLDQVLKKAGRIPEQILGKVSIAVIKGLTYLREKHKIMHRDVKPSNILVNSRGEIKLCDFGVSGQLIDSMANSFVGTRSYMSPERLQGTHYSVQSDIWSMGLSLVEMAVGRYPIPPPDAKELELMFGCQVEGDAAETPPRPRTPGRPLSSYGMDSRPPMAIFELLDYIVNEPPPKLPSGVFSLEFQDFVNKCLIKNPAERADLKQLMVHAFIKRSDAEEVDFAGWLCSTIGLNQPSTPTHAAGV
Chain of Dual specificity mitogen-activated protein kinase kinase 1 (Q02750 whole entry): as the sequence (Q02750 whole entry, looked up) above

SMILES: C[C@@H](c1ccccc1)[C@@H](C(=O)Nc1ccc(I)cc1F)N1C(=O)N[C@H](c2ccc(OC[C@H](O)CO)cc2)C1=O
- IC50 [1]: 82 nM
- concentration at 4 h [2]: 2630 ng/g
- concentration at 2 h [3]: 3040 ng/g
- inhibition [4]: Active
- inhibition [5]: Active
- AUC at 12 h [6]: 10000 ng·h/mL
- inhibition in vivo at 6.25 mg/kg [7]: 61%
- inhibition in vivo at 50 mg/kg (Mus musculus [8]): 12%
- concentration at 4 h [9]: 4140 ng/mL
- Activity (HT-29): Active
- inhibition in vivo at 100 mg/kg (Mus musculus [10]): 48%
- Cmax [11]: 750 ng/mL
- Cmax [12]: 16900 ng/mL
- Cmax [13]: 20700 ng/mL
- AUC at 24 h [14]: 66200 ng·h/mL
- inhibition in vivo at 50 mg/kg (NCI-H460): 83%
- concentration at 8 h [15]: 1160 ng/g
